Key:
[1] = test system: MRC-5; assay: SRB cytotoxicity assay, nontumorigenic lung fibroblasts; type: cell-based, human; details: 48 h
Protocol: Selectivity over nontumorigenic cells is a key requirement in cancer therapy so the cytotoxicity of 25 against nontumorigenic lung fibroblast (MRC-5) and breast cell lines (MCF12A) was evaluated with the SRB assay.
Figure 5 Cytotoxic effect of compound 25 on the nontumorigenic MRC-5 cell line (fibroblasts isolated from the lung tissue), analyzed by the SRB assay. Concentration−response curves of MRC-5 cells exposed to compound 25 for 48 h. Results are presented as percentage (%) of cell growth compared to control cells (vehicle, DMSO). For comparison purposes, the GI50 concentration of compound 25 in the NCI-H460 cell line is represented by the vertical dotted line. Results are the mean ± SEM from at least three independent experiments.
Cells were seeded at a previously determined optimal cell concentration (5.0 × 10^4 cells/mL for NSCLC cells and the nontumorigenic MRC-5 cell line and 1.0 × 10^5 cells/mL for colorectal cancer cells) and incubated at 37 °C for 24 h. […] The SRB assay was performed as previously described.[78],[79] […] Absorbance was measured at 510 nm in a multiplate reader (Synergy Mx, Biotek Instruments Inc., Winooski, Vermont, USA) using the Gen5 software (Biotek Instruments Inc.).

[2] = test system: NCI-H460 cells; assay: Western blot protein expression analysis; type: cell-based, human
Protocol: Western blot analysis was performed to evaluate the expression of known proteins associated with cell proliferation, cell cycle, apoptosis, and DNA damage (Figure 10).
Figure 10 Effect of compound 25 on the NCI-H460 cellular expression of proteins involved in proliferation, cell death and DNA damage, analyzed by Western Blotting. […] (B) Graphical representation of the expression of proteins analyzed. β-actin was used as loading control. Results are the mean ± SEM from 3 independent experiments. * p ≤ 0.05, ** p ≤ 0.01 when comparing DMSO vs compound treatment.
After this treatment, cells were centrifuged at 1200 rpm for 5 min at 4 °C, and then lysed in Wynman’s buffer, as previously described,[79] containing EDTA-free protease (Roche, Basel, Switzerland) and phosphatase inhibitors (Merck Life Science) for 30 min with agitation and at 4 °C. Protein lysates were obtained after centrifugation at 13 000 rpm, for 10 min at 4 °C, and stored at −20 °C until used. A modified Lowry protocol, DC Protein assay kit (Bio-Rad, Hercules, California, USA), was used to quantify the total protein content (using a BSA standard calibration curve). The absorbance was analyzed with the Gen5 software on the microplate reader Synergy Mx, […].
Then 20 μg of protein per treatment condition was loaded and separated in 12% SDS-PAGE gels and electrophoretically transferred into nitrocellulose membranes (GE Healthcare Life Science, Chalfont St Giles, UK) for 2 h using a Mini Trans-Blot Cell system (Bio-Rad). The membranes were then stained with Ponceau S solution (PanReac AppliChem, Barcelona, Spain) to confirm that proper protein transfer occurred. Then, the membranes were blocked in Tris-buffered saline solution (TBS) pH 7.4 containing 5% (w/v) nonfat dry milk (Molico, Nestlé, Vevey, Switzerland) or 5% (w/v) BSA for 2 h at RT. The membranes were incubated for 90 min at RT with the following primary antibodies: caspase-3 (1:200; sc-56053), cyclin D1 (1:200; sc-8396), cyclin E (1:100; sc-377100), p21 (1:200; sc-6246), p53 (1:200; sc-126), PARP-1 (1:200; sc-8007), p-Histone H2A.X (1:200; sc-517348), TP53BP1 (1:100; sc-515841), and β-actin (1:200; sc-13118) from Santa Cruz Biotechnology, Dallas, Texas, USA. Following washing steps in TBS-T, the membranes were incubated with their respective secondary antibodies, antimouse IgG horseradish peroxidase (HRP) (Cytiva, Marlborough, Massachusetts, USA) or antirabbit IgG-HRP (Cytiva) for 1 h at RT in an orbital shaker. […] The signal was detected with a Fuji Medical Film Processor (FPM-100A model), and the immunoblots were digitalized using the GS-800 calibrated densitometer (Bio-Rad). Band quantification was carried out with Software Image Lab version 6.0.1 (Bio-Rad), and the molecular weight of protein bands were estimated by comparison with the bands from a protein marker (PageRuler Plus Prestained Protein Ladder, 10−250 kDa, Thermo Fisher Scientific).

For COC(=O)c1c2c(c[n+]([O-])c1C)C(=O)C=C(NCc1ccccc1)C2=O [Compound 25], the GI50 ([1]; Homo sapiens, MRC5, SRB, nontumorigenic lung fibroblasts, ±0.075 SEM) was 1.53 µM, the “effect on MRC-5 growth at low concentrations” value ([1]; below 0.5 μM) was “does not reduce the growth of this cell line” and the “cyclin D1 expression” value ([2]; 48 h) was “increased the expression of cyclin D1 (although not statistically significantly)”. The p53 expression ([2]; 48 h) was “slightly increased the expression of p53, although not statistically significant”, the PARP-1 expression ([2]; 48 h, 0.35 and 0.7 μM) was “does not alter the expression levels of PARP-1” and the p21 expression ([2]; 48 h, 2 × GI50) was “clearly increased the expression of p21”. The procaspase-3 expression ([2]; 48 h, both 0.35 and 0.7 μM) was “significant decrease in procaspase-3”, the “TP53BP1 and p-histone H2A.X expression” value ([2]; higher concentration tested, not statistically significant) was “increased the expression levels of TP53BP1 and of the p-histone H2A.X” and the “p62, LC3-I and LC3-II expression” value ([2]; preliminary, data not shown) was “did not alter the expression levels of p62, LC3-I. and LC3-II”.

Reference: paper PMC11345829, “Discovery of Potent Isoquinolinequinone N-Oxides to Overcome Cancer Multidrug Resistance” (Journal of Medicinal Chemistry, 2024)
